In patent publication US10093623B2, “Cyclic amides as MetAP-2 inhibitors” (MERCK PATENT GmbH, priority 2012, dated 2018):
pIC50: −log10 of the molar value.

Target: MetAP-2 (Homo sapiens, UniProt P50579)
Experiment: MetAP-2 activity measurement (coupled enzymatic reactions, Met-Arg-Ser substrate, dianisidine detection at 450 nm)
Assay type: biochemical
Conditions: Inhibition of MetAP-2; read-out: IC50 enzyme
Method in brief: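 Rate read from the linear part of the 450 nm absorbance trace. Dianisidine oxidation by peroxidase reports H2O2 made when amino acid oxidase acts on methionine cleaved from MAS tripeptide, one mol dye per mol Met; extinction coefficient gives molar activity.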

Sequence of MetAP-2 (P50579 whole entry, species assumed): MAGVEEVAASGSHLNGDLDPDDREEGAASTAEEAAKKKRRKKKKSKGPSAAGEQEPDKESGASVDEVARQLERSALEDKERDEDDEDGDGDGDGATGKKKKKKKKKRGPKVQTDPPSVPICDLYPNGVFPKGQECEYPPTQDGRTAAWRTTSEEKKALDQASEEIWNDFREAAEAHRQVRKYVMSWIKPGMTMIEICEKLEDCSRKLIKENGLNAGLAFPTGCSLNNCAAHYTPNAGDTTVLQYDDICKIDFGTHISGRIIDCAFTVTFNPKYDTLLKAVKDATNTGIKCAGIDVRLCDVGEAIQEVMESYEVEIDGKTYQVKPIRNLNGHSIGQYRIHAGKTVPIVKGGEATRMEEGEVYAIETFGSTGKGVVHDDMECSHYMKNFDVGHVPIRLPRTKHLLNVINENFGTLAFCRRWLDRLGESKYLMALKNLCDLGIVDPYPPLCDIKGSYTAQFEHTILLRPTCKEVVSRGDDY

| pIC50 | SMILES |
| --- | --- |
| 5.00 to 6.00 | O=C(NCc1cc(F)cc(Cl)c1)C1(O)CCN(Cc2c[nH]cn2)C1=O (stereo not drawn) [A279, N-(3-Chloro-5-fluorobenzyl)-3-hydroxy-1-(1H-imidazol-4-ylmethyl)-2-oxopyrrolidine-3-carboxamide] |
| 5.00 to 6.00 | Cc1ccc(CN2CCC(O)(C(=O)NCc3cc(F)cc(Cl)c3)C2=O)n1C (stereo not drawn) [A280, N-(3-Chloro-5-fluorobenzyl)-1-(1,5-Dimethyl-1H-pyrrol-2-ylmethyl)-3-hydroxy-2-oxo-pyrrolidine-3-carboxamide] |
| 5.00 to 6.00 | CS(=O)(=O)N1CC[C@H](N2CCC(O)(C(=O)NCc3cc(F)cc(Cl)c3)C2=O)C1 (stereo partly drawn) [A281, N-(3-Chloro-5-fluorobenzyl)-(S)-3-hydroxy-1′-methanesulfonyl-2-oxo[1,3′]bipyrrolidinyl-3-carboxamide] |
| 5.00 to 6.00 | O=C(CN1CCC(O)(C(=O)NCc2cc(F)cc(Cl)c2)C1=O)NCCO (stereo not drawn) [A282, N-(3-Chloro-5-fluorobenzyl)-3-hydroxy-1-[(2-hydroxy-ethylcarbamoyl)methyl]-2-oxo-pyrrolidine-3-carboxamide] |
| 6.00 to 8.00 | O=C1CCc2cc(N3CC[C@](O)(C(=O)NCc4ccc(F)c(F)c4F)C3=O)ccc2N1 [A284, N-(2,3,4-Trifluorobenzyl)-(S)-3-hydroxy-2-oxo-1-(2-oxo-1,2,3,4-tetrahydroquinolin-6-yl)-pyrrolidine-3-carboxamide] |
| 6.00 to 8.00 | O=C1Nc2ccc(N3CC[C@](O)(C(=O)NCc4cc(F)cc(Cl)c4)C3=O)cc2C1(F)F [A286, N-(3-Chloro-5-fluorobenzyl)-(S)-1-(3,3-difluoro-2-oxo-2,3-dihydro-1H-indol-5-yl)-3-hydroxy-2-oxopyrrolidine-3-carboxamide] |
| < 5.00 | O=C1Nc2ccc(N3CC[C@@](O)(C(=O)NCc4cc(F)cc(Cl)c4)C3=O)cc2C1(F)F [A288, N-(3-Chloro-5-fluorobenzyl)-(R)-1-(3,3-difluoro-2-oxo-2,3-dihydro-1H-indol-5-yl)-3-hydroxy-2-oxopyrrolidine-3-carboxamide] |
| 5.00 to 6.00 | Cc1nnc(CN2CCC(O)(C(=O)NCc3cc(F)cc(Cl)c3)C2=O)o1 (stereo not drawn) [A290, N-(3-Chloro-5-fluorobenzyl)-3-hydroxy-1-(5-methyl-1,3,4-oxadiazol-2-ylmethyl)-2-oxo-pyrrolidine-3-carboxamide] |
| 5.00 to 6.00 | CC(=O)N1CC[C@@H](N2CCC(O)(C(=O)NCc3cc(F)cc(Cl)c3)C2=O)C1 (stereo partly drawn) [A291, N-(3-chloro-5-fluorobenzyl-)(R)-1′-acetyl-3-hydroxy-2-oxo-[1,3′]bipyrrolidinyl-3-carboxamide] |
| 5.00 to 6.00 | CS(=O)(=O)N1CC[C@@H](N2CCC(O)(C(=O)NCc3cc(F)cc(Cl)c3)C2=O)C1 (stereo partly drawn) [A292, N-(3-Chloro-5-fluorobenzyl)-(R)-3-hydroxy-1′-methanesulfonyl-2-oxo[1,3′]bipyrrolidinyl-3-carboxamide] |
| 6.00 to 8.00 | CC1CCC(N2CCC(O)(C(=O)NCc3cc(F)cc(Cl)c3)C2=O)CC1 (stereo not drawn) [A293, N-(3-Chloro-5-fluorobenzyl)-3-hydroxy-1-(4-methylcyclohexyl)-2-oxopyrrolidine-3-carboxamide] |
| 5.00 to 6.00 | NC(=O)CCN1CCC(O)(C(=O)NCc2cc(F)cc(Cl)c2)C1=O (stereo not drawn) [A300, N-(3-Chloro-5-fluorobenzyl)-1-(2-carbamoylethyl)-3-hydroxy-2-oxopyrrolidine-3-carboxamide] |
| 6.00 to 8.00 | O=C1CCc2cc(N3CC[C@](O)(C(=O)NCc4cc(Cl)ccc4F)C3=O)ccc2N1 [B4, N-(5-Chloro-2-fluorobenzyl)-(S)-3-hydroxy-2-oxo-1-(2-oxo-1,2,3,4-tetrahydroquinolin-6-yl)-pyrrolidine-3-carboxamide] |
| 6.00 to 8.00 | O=C1CCc2cc(N3CC[C@](O)(C(=O)NCCc4ccccc4F)C3=O)ccc2N1 [B5, N-[2-(2-Fluorophenyl)ethyl]-(S)-3-hydroxy-2-oxo-1-(2-oxo-1,2,3,4-tetrahydroquinolin-6-yl)-pyrrolidine-3-carboxamide] |
| 6.00 to 8.00 | O=C1CCc2cc(N3CC[C@](O)(C(=O)NCCc4cccc(F)c4)C3=O)ccc2N1 [B6, N-[2-(3-Fluorophenyl)ethyl]-(S)-3-hydroxy-2-oxo-1-(2-oxo-1,2,3,4-tetrahydroquinolin-6-yl)-pyrrolidine-3-carboxamide] |
| 6.00 to 8.00 | CC(=O)Nc1ccc(N2CC[C@](O)(C(=O)NCc3cccc(F)c3Cl)C2=O)cn1 [B9, N-(2-Chloro-3-fluorobenzyl)-(S)-1-(6-acetylaminopyridin-3-yl)-3-hydroxy-2-oxopyrrolidine-3-carboxamide] |
| 6.00 to 8.00 | O=C(NCCc1cccc(F)c1)[C@@]1(O)CCN(c2ccc3[nH]ccc3c2)C1=O [B10] |
| 5.00 to 6.00 | COc1cc(Cl)c(C)cc1N1CCC(O)(C(=O)NCc2cc(F)cc(Cl)c2)C1=O (stereo not drawn) [B12, N-(3-Chloro-5-fluorobenzyl)-1-(4-chloro-2-methoxy-5-methyl-phenyl)-3-hydroxy-2-oxo-pyrrolidine-3-carboxamide] |
| 5.00 to 6.00 | COc1ccc(Cl)cc1N1CCC(O)(C(=O)NCc2cc(F)cc(Cl)c2)C1=O (stereo not drawn) [B13, 1-(5-Chloro-2-methoxyphenyl)-3-hydroxy-2-oxopyrrolidine-3-carboxylic acid 3-chloro-5-fluorobenzylamide] |
| 6.00 to 8.00 | O=C(NCCc1ccccc1F)[C@@]1(O)CCN(c2ccc3[nH]ccc3c2)C1=O [B14, (S)-3-hydroxy-1-(1H-indol-5-yl)-2-oxopyrrolidine-3-carboxylic acid[2-(2-fluorophenyl)ethyl]-amide] |

| pIC50 | SMILES |
| --- | --- |
| 6.00 to 8.00 | O=C1CCc2cc(N3CC[C@](O)(C(=O)NCc4cccc(F)c4Cl)C3=O)ccc2N1 [B15, N-(2-Chloro-3-fluorobenzyl)-(S)-3-hydroxy-2-oxo-1-(2-oxo-1,2,3,4-tetrahydroquinolin-6-yl)-pyrrolidine-3-carboxamide] |
| 5.00 to 6.00 | O=C(NCc1cc(F)cc(Cl)c1)C1(O)CCCN(Cc2ccccc2)C1 (stereo not drawn) [B16, N-(3-Chloro-5-fluorobenzyl)-1-benzyl-3-hydroxypiperidine-3-carboxamide] |
| 6.00 to 8.00 | O=C(NCc1cc(F)cc(Cl)c1)[C@@]1(O)CCN(c2ccc(Br)c(CO)c2)C1=O [B17, N-(3-Chloro-5-fluorobenzyl)-(S)-1-(4-bromo-3-hydroxymethyl-phenyl)-3-hydroxy-2-oxo-pyrrolidine-3-carboxamide] |
| 6.00 to 8.00 | O=C1N(CC2CCCCC2)CCCC1(O)CNCc1cc(F)cc(Cl)c1 (stereo not drawn) [B18, 3-[(3-Chloro-5-fluorobenzylamino)methyl]-1-cyclohexylmethyl-3-hydroxy-piperidin-2-one] |
| < 5.00 | OC1(CNCc2cc(F)cc(Cl)c2)CCCN(Cc2ccccc2)C1 (stereo not drawn) [B19, 1-Benzyl-3-[(3-chloro-5-fluorobenzylamino)methyl]-piperidin-3-ol] |
| < 5.00 | OC1(CNCc2cccc(F)c2)CCCN(Cc2ccccc2)C1 (stereo not drawn) [B20, 1-Benzyl-3-[(3-fluorobenzylamino)methyl]-piperidin-3-ol] |
| < 5.00 | O[C@]1(CNCc2ccc(F)cc2)CCCN(Cc2ccccc2)C1 [B21, (S)-1-Benzyl-3-[(4-fluorobenzylamino)methyl]-piperidin-3-ol] |
| 6.00 to 8.00 | O=C1N(Cc2cccc(F)c2F)CCC[C@]1(O)CNCc1cccc(F)c1 [B22, (S)-1-(2,3-Difluorobenzyl)-3-[(3-fluorobenzylamino)methyl]-3-hydroxypiperidin-2-one] |
| 5.00 to 6.00 | O=C1N(Cc2cccc(F)c2F)CCC[C@@]1(O)CNCc1cccc(F)c1 [B23, (R)-1-(2,3-Difluorobenzyl)-3-[(3-fluorobenzylamino)methyl]-3-hydroxypiperidin-2-one] |
| 6.00 to 8.00 | O=C1CCc2cc(N3CC[C@](O)(C(=O)NCc4cc(F)ccc4F)C3=O)ccc2N1 [B24, N-(2,5-Difluorobenzyl)-(S)-3-hydroxy-2-oxo-1-(2-oxo-1,2,3,4-tetrahydroquinolin-6-yl)-pyrrolidine-3-carboxamide] |
| 6.00 to 8.00 | O=C(NCc1cc(F)cc(Cl)c1)C1(O)CCN(c2cc(C(F)(F)F)ccc2F)C1=O (stereo not drawn) [B26, N-(3-Chloro-5-fluorobenzyl)-1-(2-Fluoro-5-trifluoromethyl-phenyl)-3-hydroxy-2-oxo-pyrrolidine-3-carboxamide] |
| 6.00 to 8.00 | O=C(NCc1cc(F)cc(Cl)c1)C1(O)CCN(c2ccc(Cl)c(C(F)(F)F)c2)C1=O (stereo not drawn) [B27, N-(3-Chloro-5-fluorobenzyl)-1-(4-Chloro-3-trifluoromethyl-phenyl)-3-hydroxy-2-oxo-pyrrolidine-3-carboxamide] |
| 6.00 to 8.00 | NC(=O)c1cc(N2CCC(O)(C(=O)NCc3cc(F)cc(Cl)c3)C2=O)ccc1F (stereo not drawn) [B28, N-(3-Chloro-5-fluorobenzyl)-1-(3-carbamoyl-4-fluorophenyl)-3-hydroxy-2-oxopyrrolidine-3-carboxamide] |
| 6.00 to 8.00 | O=C1N(c2ccccc2)CCC1(O)CNCc1cc(F)cc(Cl)c1 (stereo not drawn) [B29, 3-[(3-Chloro-5-fluorobenzylamino)methyl]-3-hydroxy-1-phenylpyrrolidin-2-one] |
| < 5.00 | OC1(CNCc2cc(F)cc(Cl)c2)CCN(Cc2ccccc2)C1 (stereo not drawn) [B30, 1-Benzyl-3-[(3-chloro-5-fluorobenzylamino)methyl]-pyrrolidin-3-ol] |
| 6.00 to 8.00 | O=C1N(Cc2ccccc2)CCCC1(O)CNCc1cc(F)cc(Cl)c1 (stereo not drawn) [B31, 1-Benzyl-3-[(3-chloro-5-fluorobenzylamino)methyl]-3-hydroxypiperidin-2-one] |
| 6.00 to 8.00 | O=C1N(c2ccccc2)CCCC1(O)CNCc1cc(F)cc(Cl)c1 (stereo not drawn) [B32, 3-[(3-Chloro-5-fluorobenzylamino)methyl]-3-hydroxy-1-phenylpiperidin-2-one] |
| 6.00 to 8.00 | Cc1nc2cc(N3CCC(O)(C(=O)NCc4cc(F)cc(Cl)c4)C3=O)cnc2[nH]1 (stereo not drawn) [B33, N-(3-Chloro-5-fluorobenzyl)-3-hydroxy-1-(2-methyl-3H-imidazo[4,5-b]pyridin-6-yl)-2-oxopyrrolidine-3-carboxamide] |
| 6.00 to 8.00 | O=C(NCc1cc(F)cc(Cl)c1)C1(O)CCN(c2cnc3[nH]cnc3c2)C1=O (stereo not drawn) [B35, N-(3-Chloro-5-fluorobenzyl)-3-hydroxy-1-(3H-imidazo[4,5-b]-pyridin-6-yl)-2-oxopyrrolidine-3-carboxamide] |
